Holding throughout (experiment): inhibition of tumour cell growth, NCI panel, 48 h
In test [1] the test system is A498 renal.
The subject of test [2] is HS 578T breast.
Test [3] relates to SF-295 CNS.
In test [4] the test system is SN12C renal.
Test [5] has as its system MOLT-4 leukemia.
Test [6] has as its system SNB-75 CNS.
Test [7] deals with HCT-116 colon.
Test [8] has as its system NCI-H226 lung.
Test [9] concerns NCI/ADR-RES ovarian.
Test [10] relates to SK-OV-3 ovarian.

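Compound exposure: 48 hours, 5 concentrations, 96-well plates. Abbreviation: GI50, concentration required for 50% inhibition of growth. TGI is the concentration that stops growth completely.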 Where only a bound is given, the exact number is not on record here.

As for `COc1ccc2c(c1)OCC1c3cc(OC)ccc3OC21` (stereo not given), the GI50 in test [1] was 63.1 µM; in test [2], > 100 µM; in test [3], 20.4 µM; in test [4] it was 74.3 µM; in [5], 8.94 µM; in [6], 47.3 µM. The GI50 in test [7] was 47.5 µM; in test [8] it was 27.3 µM; in test [9], 32 µM; in test [10] it was > 100 µM. Moreover, the TGI in [1] is > 100 µM; in test [2], > 100 µM; in test [3] it was > 100 µM; in test [4] it was > 100 µM; in test [5], 61.1 µM; in [6] it was > 100 µM. The TGI in [7], in test [8], in test [9] and in test [10] was > 100 µM in each case.
With `NC1=Nc2cc(OCCCCN3Cc4ccccc4C3)c(OCC3CC3)cc2C12CCCC2`, the GI50 in test [1] was 0.951 µM; in test [2], 1.49 µM; in [3] it was 1.94 µM; in [4], 1.7 µM; in [5] it was 1.88 µM; in [6], 1.19 µM. The GI50 in test [7] is 1.2 µM; in test [8], 1.32 µM; in test [9] it was 1.73 µM; in test [10] it was 1.89 µM. The TGI was 4.91 µM in [1]; 4.18 µM in test [2]; 3.83 µM in test [3]; 3.41 µM in [4]; 5.04 µM in test [5]; 2.48 µM in test [6]. Further, the TGI in test [7] stood at 2.56 µM; in test [8], 3.48 µM; in test [9], 3.41 µM; in test [10] it was 3.9 µM.
For `CCCCCCCCCCCCNC(=O)N[C@H](C(=O)N[C@H]1/C=C/OCCNC(=O)/C=C/[C@H](C(C)C)NC1=O)C(C)C`, the GI50 is 7.81 µM in test [1]; 3.22 µM in test [2]; 21.4 µM in test [3]; 23.6 µM in test [4]; 3.26 µM in test [5]; 4.31 µM in [6]. For the same molecule, the GI50 in test [7] was 1.67 µM; in test [8], 4.53 µM; in [9], > 100 µM; in [10], > 75.3 µM. The TGI in test [1] was 57 µM; in [2], 38.1 µM; in test [3] it was > 100 µM; in test [4], > 100 µM; in test [5], > 100 µM; in test [6] it was > 100 µM. Moreover, the TGI in test [7] is 21.7 µM; in [8] it was > 19.7 µM; in test [9] it was > 100 µM; in [10], > 100 µM.
For the molecule `CCN(CC)c1ccc(C=C2C(=O)NC(=S)NC2=O)cc1`, the GI50 in [1] is 3.29 µM; in [2] it was 5.53 µM; in test [3], 6.21 µM; in test [4] it was 7.24 µM; in [5], 3.16 µM; in test [6], 2.66 µM. Besides, the GI50 was 3.34 µM in test [7], 3.24 µM in test [8], 3.39 µM in test [9] and 14.8 µM in test [10]. Also, the TGI is 11.3 µM in test [1]; > 100 µM in test [2]; 21.2 µM in [3]; 23.1 µM in test [4]; 10.4 µM in test [5]; 8.75 µM in [6]. In addition, the TGI was found to be 8.98 µM in [7], 10.2 µM in test [8], 12.2 µM in test [9] and 28 µM in [10].
Take `CC1SC(c2ccc(OCc3ccccc3)cc2)N(NC(=O)C(O)(c2ccccc2)c2ccccc2)C1=O` (stereo not given): the GI50 in test [1] is 3.34 µM; in test [2], 1.94 µM; in [3] it was 1.78 µM; in [4], 3.95 µM; in test [5], 2.02 µM; in test [6] it was 3.72 µM. In addition, the GI50 in test [7] was 1.76 µM; in test [8], 3.79 µM; in [9], 3.72 µM; in test [10] it was 9.49 µM. Besides, the TGI in test [1] came out at 13.7 µM; in test [2], 7.15 µM; in [3], 4.53 µM; in [4], 13.8 µM; in test [5], 5.58 µM; in [6], 18.1 µM. Moreover, the TGI came out at 4.71 µM in test [7], 15.8 µM in test [8], 17.8 µM in test [9] and 33.2 µM in test [10].
On to `CC(C)OC(=O)OCOP(=O)(OCOC(=O)OC(C)C)C1CCCN(O)C1=O` (stereo not given), for which the GI50 is 0.0732 µM in test [1]; 0.586 µM in test [2]; 7.14 µM in [3]; 0.281 µM in test [4]; 1.34 µM in test [5]; 5.46 µM in [6]. Moreover, the GI50 is 0.711 µM in [7], 1.36 µM in [8], 2.6 µM in test [9] and 1.84 µM in test [10]. Further, the TGI was 0.867 µM in [1]; 6.56 µM in test [2]; > 100 µM in test [3]; > 100 µM in test [4]; > 100 µM in test [5]; > 100 µM in test [6]. Besides, the TGI in test [7], in [8], in test [9] and in test [10] was > 100 µM each time.
`Cc1ccccc1C1N=C2Oc3ccccc3C=C2C(=O)N1` (stereo not given): the GI50 in test [1] was 0.347 µM; in test [2], 2.82 µM; in test [3], 1.46 µM; in [4] it was 8.33 µM; in test [5], 19 µM; in test [6] it was 1.51 µM. The GI50 in [7] was 6.37 µM; in [8] it was > 100 µM; in [9] it was 2.96 µM; in [10], 0.66 µM. Besides, the TGI in test [1] was 2.58 µM; in [2], > 100 µM; in test [3] it was > 25.9 µM; in test [4], > 100 µM; in test [5] it was > 100 µM; in test [6], > 100 µM. Further, the TGI in [7] was > 100 µM; in [8], > 100 µM; in test [9], > 87.8 µM; in test [10], > 100 µM.
Consider `CS(=O)c1cc(=O)c2ccccc2s1` (stereo not given), for which the TGI stood at 25.4 µM in test [1]; 62.7 µM in [2]; 32.6 µM in test [3]; 13.2 µM in test [4]; 6.36 µM in test [5]; 24.4 µM in test [6]. Also, the TGI worked out at 5.11 µM in test [7], 35.5 µM in [8], 34.1 µM in [9] and 39.4 µM in [10].
On to `N#CSc1c[nH]c2cccc(/C=C/C(=O)/C=C(O)/C=C/c3cccc4[nH]cc(SC#N)c34)c12`, for which the GI50 in test [1] is 1.03 µM; in test [2], 0.779 µM; in test [3], 0.746 µM; in test [4], 0.364 µM; in [5] it was 0.322 µM; in test [6], 0.67 µM. Further, the GI50 in test [7] is 0.109 µM; in test [8], 0.607 µM; in test [9], 2.72 µM; in test [10] it was 1.32 µM. The TGI in [1] is 4.27 µM; in test [2], 9.48 µM; in test [3], 2.29 µM; in [4], 1.57 µM; in test [5], 1.48 µM; in [6], 2.68 µM. Moreover, the TGI in test [7] is 0.421 µM; in test [8], 1.34 µM; in test [9], > 33.3 µM; in [10] it was 5.23 µM.
Consider `CCOc1ccc(-c2nc3ccc(-c4nc5ccc(N6CCN(C)CC6)cc5[nH]4)cc3[nH]2)cc1OCC`, for which the GI50 is 1.51 µM in test [1]; 1.74 µM in [2]; 1.98 µM in test [3]; 1.94 µM in test [4]; 2.75 µM in test [5]; 1.03 µM in test [6]. In addition, the GI50 is 0.529 µM in test [7], 1.17 µM in test [8], > 100 µM in test [9] and 2.49 µM in test [10]. The TGI came to 4.58 µM in [1]; 5.46 µM in test [2]; 16.1 µM in test [3]; 10.9 µM in test [4]; 9.76 µM in test [5]; 2.56 µM in test [6]. Also, the TGI was 2.72 µM in [7], 4.8 µM in [8], > 100 µM in test [9] and 9.41 µM in test [10].
For `CC/C(=C\c1ccc(N(C)C)cc1)c1ccncc1`, the GI50 in test [1] is 4.35 µM; in test [2], 4.13 µM; in test [3], 3.44 µM; in test [4], 5.96 µM; in test [5] it was 5.09 µM; in test [6], 6.88 µM. For the same molecule, the GI50 is 3.89 µM in test [7], 14.1 µM in test [8], 2.38 µM in test [9] and 7.87 µM in [10]. For the same molecule, the TGI in test [1] is > 100 µM; in test [2], 67.2 µM; in test [3], 21.1 µM; in test [4], > 100 µM; in test [5] it was > 100 µM; in test [6], 47.7 µM. In addition, the TGI in [7] was > 100 µM; in test [8], > 100 µM; in test [9], 6.09 µM; in test [10] it was 53.3 µM.

Values taken from PubChem BioAssay (NCI).
